The values below come from US4442093A, “Method for administering 24,25-dihydroxycholecalciferol to persons suffering from hypercalcemia” (Kureha Kagaku Kogyo Kabushiki Kaisha, priority 1981, dated 1984).

Structures are written as SMILES.

One assay concerns gastric ulcer. Nature of the assay: Prevention of gastric ulcer due to pyloric ligation (Example 9). The settings on record: 200 µg/kg i.p. once after pyloric ligation, 15 h. Format: in vivo, male Wistar rats. As for the experimental part:
Twenty male Wistar rats of average body weight of 250 g were divided equally into two groups, and used in the following test:
After 36 hour fasting, all the rats were subjected to pyloric ligation, and the rats of the first group were administered with 2 ml/kg of Panacete®810 (triglyceride ester of C8 and C10 -fatty acid, made by Nippon Oil & Fats Co., Ltd.) containing 0.2% by weight of ethanol intraperitoneally once just after ligation. The rats of the second group were administered with 24R,25-(OH)2 -D3 dissolved in Panacete®810 containing 0.2% by weight of ethanol intraperitoneally at a dose rate of 200 micrograms/kg body weight once just after ligation. After 15 hours of administration, all the rats were subjected to gastrectomy, and the presence or absence of the gastroparietal ulcer was examined on all the resected stomach.
As a result, the occurrence of gastric ulcer was found on 9 rats of 10 rats of the first group, and on 2 rats of 10 rats of the second group.
In a similar test, 24S,25-(OH)2 -D3 was used instead of 24R,25-(OH)2 -D3 to examine its effect in preventing the occurrence of gastric ulcer due to pyloric ligation. As a result, the occurrence of gastric ulcer was recognized on 3 rats of 10 rats of the group similarly treated to those of the second group.

The next assay concerns blood sugar level. Description: Blood sugar in patients (Example 23). Format: in vivo, human. As for the experimental part:
Three patients shown in Table 17 were treated by oral administration of a daily dose of 4 to 6 micrograms of 24R,25-(OH)2 -D3 in a form of the soft capsule composition obtained in Example 6 for 3 continuous weeks. After the completion of administration, the patient was fasted for a night and their blood specimen was collected at 11:00 a.m. in the next morning.
Effectiveness of reducing blood sugar level (ERBS) is calculated from the […]

Setting [1] is: average of 3 patients, 4 to 6 µg/day oral, 3 weeks.
Setting [2] is: person fourteen, 4 µg/day oral, 3 weeks.
[3] abbreviates: person nineteen, 6 µg/day oral, 3 weeks.
Where [4] appears, read: person seven, 6 µg/day oral, 3 weeks.

For the compound `C=C1CC[C@H](O)C/C1=C/C=C1\CCC[C@]2(C)[C@@H]([C@H](C)CC[C@@H](O)C(C)(C)O)CC[C@@H]12` [24R,25-(OH)2 -D3], in the assay on gastric ulcer, the “occurrence of gastric ulcer” value is 2 rats of 10 rats. The “Blood sugar level after administration, average” value in the assay with blood sugar level (setting [1]) was 129.7 ± 9.1 mg/dL. Also, the “Effectiveness in reducing blood sugar level, average” value in the assay on blood sugar level (setting [1]) is listed as 86.2%. In the assay on blood sugar level (average of 3 patients, baseline), the “Blood sugar level before administration, average” value came to 182 ± 13.5 mg/dL. The results for the “Blood sugar level after administration” value in the assay with blood sugar level (setting [2]), in the assay with blood sugar level (setting [3]) and in the assay on blood sugar level (setting [4]) were 120 mg/dL, 138 mg/dL and 131 mg/dL, respectively. Further, the “Effectiveness in reducing blood sugar level” value was found to be 100% with blood sugar level (setting [2]), 76% with blood sugar level (setting [3]) and 82.5% with blood sugar level (setting [4]). Further, the “Blood sugar level before administration” value in the assay with blood sugar level (person fourteen, baseline) was determined as 168 mg/dL; in the assay on blood sugar level (person nineteen, baseline) it was 195 mg/dL; in the assay with blood sugar level (person seven, baseline), 183 mg/dL.
